Test systems include OVCAR-4; SK-MEL-5; M14; HOP-62; HCT-15; ACHN; SK-OV-3; SK-MEL-2; HT-29; UACC-257; A549; K562; LOX IMVI; KM12; NCI-H226; TK-10; CAKI-1; SR.
Common to all, as to test: growth of human tumour cells (NCI), 48 h

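Step 1: Grow cells in 96-well plates. Step 2: Expose to compound for 48 hours at 5 concentrations. Step 3: Interpolate endpoints linearly; if unreached, use highest concentration. GI50 = concentration required for 50% inhibition of growth.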 Activity calls are given as the source filed them. No stated cut-off is given here; in the data, active = GI50 up to about 1.1 µM and inactive = higher. Where only a bound is given, the exact number is not on record here.

On to `C[Si](C)(C)C#C[I+]c1ccccc1`, for which the GI50 in the experiment with OVCAR-4 is 36.2 µM (inactive); in the experiment on SK-MEL-5, 45.9 µM (inactive); with M14, 23.5 µM (inactive); in the experiment with HOP-62 it was > 100 µM (inactive); in the experiment with HCT-15 it was 22.5 µM; in the experiment on ACHN, 41.8 µM (inactive). Further, the GI50 in the experiment with SK-OV-3 is > 100 µM (inactive); with SK-MEL-2 it was > 100 µM (inactive); in the experiment on HT-29 it was 32.9 µM (inactive); in the experiment with UACC-257 it was > 100 µM (inactive); in the experiment with A549 it was > 100 µM (inactive); with K562, 41.1 µM (inactive). In addition, the GI50 with LOX IMVI is 19.1 µM (inactive); in the experiment with KM12, 87.3 µM (inactive); in the experiment on NCI-H226, > 100 µM (inactive); in the experiment on TK-10, > 100 µM (inactive); with CAKI-1, 42.8 µM (inactive).
Take `O=C(/C=C1\Nc2ccccc2C(=O)N1c1ccc(Cl)cc1)c1ccncc1`: the GI50 in the experiment with OVCAR-4 is > 100 µM (inactive); with SK-MEL-5, > 100 µM (inactive); in the experiment on M14, > 100 µM (inactive); in the experiment with HOP-62, > 100 µM (inactive); in the experiment on HCT-15 it was more than 100 µM; in the experiment on ACHN, > 100 µM (inactive). Moreover, the GI50 with SK-OV-3, in the experiment with SK-MEL-2, with HT-29, in the experiment on UACC-257, in the experiment with A549 and with K562 was > 100 µM (inactive) in each case. For the same molecule, the GI50 in the experiment with SR, in the experiment with KM12, with NCI-H226, in the experiment on TK-10 and in the experiment with CAKI-1 was > 100 µM (inactive) in each case.
As to `O=C(c1ccccc1)C1CCCCN1C(=O)c1ccccc1` (stereo not drawn), the GI50 in the experiment on OVCAR-4 is > 100 µM (inactive); with SK-MEL-5 it was > 100 µM (inactive); in the experiment with M14 it was > 100 µM (inactive); with HOP-62, > 100 µM (inactive); in the experiment on HCT-15, more than 100 µM; with ACHN, > 100 µM (inactive). Further, the GI50 in the experiment with SK-OV-3, with SK-MEL-2, with UACC-257, in the experiment with A549, in the experiment with K562 and with SR was > 100 µM (inactive) in each case. Moreover, the GI50 in the experiment with KM12, in the experiment on NCI-H226, with TK-10 and in the experiment with CAKI-1 was > 100 µM (inactive) throughout.
Consider `C=CCNC1=NC(=O)C(CC(=O)Nc2ccc([N+](=O)[O-])cc2[N+](=O)[O-])S1` (stereo not drawn), for which the GI50 in the experiment with OVCAR-4 is 95.7 µM (inactive); in the experiment on SK-MEL-5, > 100 µM (inactive); in the experiment on M14, > 100 µM (inactive); with HOP-62, > 100 µM (inactive); with HCT-15, more than 100 µM; in the experiment with ACHN, 90.6 µM (inactive). In addition, the GI50 with SK-OV-3, in the experiment with SK-MEL-2, in the experiment on HT-29, in the experiment on UACC-257, in the experiment on A549 and in the experiment on KM12 was > 100 µM (inactive) in each case. The values for the GI50 in the experiment with NCI-H226, in the experiment on TK-10 and in the experiment with CAKI-1 were > 100 µM (inactive), 98.6 µM (inactive) and 83.8 µM (inactive), respectively.
For `CC[C@@]12N=C(N(C)C)C[C@]1(O)ON=C2C`, the GI50 with OVCAR-4 is > 100 µM (inactive); in the experiment on SK-MEL-5, > 100 µM (inactive); in the experiment with M14, > 100 µM (inactive); in the experiment on HCT-15, more than 100 µM; with ACHN, > 100 µM (inactive); with SK-OV-3, > 100 µM (inactive). Moreover, the GI50 in the experiment with SK-MEL-2, with HT-29, in the experiment with A549, with K562, in the experiment on SR and in the experiment on KM12 was > 100 µM (inactive) each time. The GI50 in the experiment with NCI-H226, in the experiment on TK-10 and in the experiment with CAKI-1 was > 100 µM (inactive) throughout.
In the case of `O=C1c2ccccc2N2OC3C4CCC(C4)C3C12c1ccccc1` (stereo not drawn), the GI50 is > 100 µM (inactive) in the experiment with OVCAR-4; 60.8 µM (inactive) in the experiment with SK-MEL-5; 92.5 µM (inactive) in the experiment with M14; > 100 µM (inactive) in the experiment on HOP-62; 45.8 µM in the experiment on HCT-15; > 100 µM (inactive) in the experiment with ACHN. Moreover, the GI50 is > 100 µM (inactive) in the experiment with SK-OV-3; 61.4 µM (inactive) in the experiment on HT-29; 70 µM (inactive) in the experiment with UACC-257; 55.5 µM (inactive) with A549; 47 µM (inactive) in the experiment on K562; 44.1 µM (inactive) with SR. Also, the GI50 in the experiment with NCI-H226 is > 100 µM (inactive).
As to `Cc1nc2ccccc2c(=O)n1/N=C(\N=N\c1ccccc1Cl)c1ccccc1`, the GI50 in the experiment on SK-MEL-5 is 19.4 µM (inactive); in the experiment with M14 it was 18.1 µM (inactive); in the experiment on HOP-62, 19.1 µM (inactive); in the experiment with HCT-15, 22.2 µM; in the experiment on SK-OV-3 it was 31 µM (inactive); with HT-29, 25.6 µM (inactive). The GI50 in the experiment on A549 was 48.6 µM (inactive); in the experiment with LOX IMVI, 24.8 µM (inactive); in the experiment on TK-10, 60.5 µM (inactive); in the experiment with CAKI-1, 23.4 µM (inactive).
`O=C(OCC1CO1)c1cccs1` (stereo not drawn): the GI50 in the experiment with OVCAR-4 was > 100 µM (inactive); with SK-MEL-5 it was > 100 µM (inactive); in the experiment on M14 it was > 100 µM (inactive); in the experiment with HOP-62, > 100 µM (inactive); in the experiment with HCT-15, more than 100 µM; in the experiment on ACHN, > 100 µM (inactive). Moreover, the GI50 with SK-OV-3, in the experiment on SK-MEL-2, in the experiment on HT-29, in the experiment with UACC-257, with A549 and in the experiment on K562 was > 100 µM (inactive) each time. Besides, the GI50 with LOX IMVI, in the experiment with KM12, in the experiment on TK-10 and with CAKI-1 was > 100 µM (inactive) in each case.
On to `CSc1ccc(C2OC(=O)c3ccccc32)c2ccccc12` (stereo not drawn), for which the GI50 with OVCAR-4 is 70.5 µM (inactive); in the experiment with SK-MEL-5, 58.2 µM (inactive); with M14 it was > 100 µM (inactive); in the experiment with HOP-62, > 100 µM (inactive); in the experiment with HCT-15 it was 97.7 µM; in the experiment with ACHN, 88.5 µM (inactive). Further, the GI50 with SK-OV-3 was > 100 µM (inactive); in the experiment on SK-MEL-2, > 100 µM (inactive); in the experiment on HT-29, 52.5 µM (inactive); with UACC-257, > 100 µM (inactive); in the experiment with A549, 81.3 µM (inactive); in the experiment on K562, 31 µM (inactive). The GI50 with LOX IMVI is 88.3 µM (inactive); in the experiment on SR it was 97.1 µM (inactive); with KM12, 78 µM (inactive); with CAKI-1, 80.7 µM (inactive).
In the case of `O=C1C2C=CC(C2)C(c2ccc(O)cc2)N1O` (stereo not drawn), the GI50 in the experiment on OVCAR-4, in the experiment with SK-MEL-5, with M14, in the experiment on HOP-62, with ACHN and in the experiment with SK-OV-3 was > 100 µM (inactive) each time. Also, the GI50 in the experiment with SK-MEL-2, in the experiment on HT-29, in the experiment on UACC-257, in the experiment on A549, in the experiment on K562 and in the experiment with SR was > 100 µM (inactive) throughout. The GI50 with KM12, in the experiment with NCI-H226, in the experiment with TK-10 and in the experiment on CAKI-1 was > 100 µM (inactive) each time.
With `COC(=O)[C@@]12C3=NO[C@]1(C(=O)OC)C(O[Si](C)(C)C(C)(C)C)[C@H]1OC(C)(C)O[C@H]1[C@@H]2C(OCc1ccccc1)CC3` (stereo partly drawn), the GI50 with OVCAR-4 was 22.3 µM (inactive); in the experiment on SK-MEL-5, 35.1 µM (inactive); with M14 it was 26.9 µM (inactive); in the experiment with HCT-15, more than 100 µM; in the experiment on ACHN, 13.2 µM (inactive); in the experiment with SK-OV-3, 25.6 µM (inactive). The GI50 in the experiment on SK-MEL-2 is 28.8 µM (inactive); with HT-29, 67.3 µM (inactive); in the experiment on A549 it was 34 µM (inactive); in the experiment with K562, > 100 µM (inactive); in the experiment on LOX IMVI it was 69 µM (inactive); with KM12, 28.3 µM (inactive). In addition, the results for the GI50 in the experiment on NCI-H226 and in the experiment on TK-10 were 88.7 µM (inactive) and 84.1 µM (inactive), respectively.
Consider `COc1cc(/C=C\c2ccc(O)cc2)cc(OC)c1OC`, for which the GI50 with OVCAR-4 is 8.97 µM (inactive); in the experiment with SK-MEL-5, 1.18 µM (inactive); in the experiment with M14, 22.2 µM (inactive); in the experiment with HCT-15, 0.518 µM; with ACHN, 8.17 µM (inactive); in the experiment with SK-OV-3, 3.88 µM (inactive). For the same molecule, the GI50 is 2.64 µM (inactive) in the experiment on SK-MEL-2; 15.3 µM (inactive) in the experiment on HT-29; 17.3 µM (inactive) with UACC-257; 6.1 µM (inactive) in the experiment on A549; 5.19 µM (inactive) in the experiment on LOX IMVI; 0.883 µM (active) in the experiment with KM12. The values for the GI50 with NCI-H226, in the experiment on TK-10 and in the experiment with CAKI-1 were 22.3 µM (inactive), 18.2 µM (inactive) and 4.71 µM (inactive), respectively.
Consider `Cn1cnc([N+](=O)[O-])c1Sc1nc2ccccc2s1`, for which the GI50 is 3.01 µM (inactive) in the experiment on OVCAR-4; 13.7 µM (inactive) in the experiment on SK-MEL-5; 15.2 µM (inactive) in the experiment with M14; 25.2 µM (inactive) with HOP-62; 2.99 µM with HCT-15; 15 µM (inactive) with ACHN. The GI50 is 15.5 µM (inactive) in the experiment with SK-OV-3; 13.3 µM (inactive) in the experiment with HT-29; 10.2 µM (inactive) with A549; 15.3 µM (inactive) in the experiment on LOX IMVI; 3.48 µM (inactive) in the experiment with SR; 15.1 µM (inactive) in the experiment on KM12. Moreover, the GI50 in the experiment on NCI-H226 is 9.84 µM (inactive); with CAKI-1 it was 1.57 µM (inactive).
Turning to `CC12CCC(CC1)C(C)(C)O2` [EUCALYPTOL], the GI50 was 61.1 µM (inactive) with OVCAR-4; 5.5 µM (inactive) with SK-MEL-5; > 100 µM (inactive) with M14; 12.6 µM (inactive) in the experiment on HOP-62; 12.1 µM in the experiment with HCT-15; > 100 µM (inactive) in the experiment with ACHN. The GI50 with SK-OV-3 was 57.5 µM (inactive); in the experiment with SK-MEL-2, 47.3 µM (inactive); in the experiment on HT-29 it was 59.4 µM (inactive); in the experiment on UACC-257 it was 16.9 µM (inactive); in the experiment with LOX IMVI, 7.43 µM (inactive); in the experiment with SR, > 100 µM (inactive). The GI50 in the experiment on KM12 is 33.9 µM (inactive); with TK-10, > 100 µM (inactive).
